In US20180265804A1 (priority 2015, published 2018):

How the values were obtained:
[1] = tested on: Salmonella Typhimurium; type: cell-based
[2] = tested on: Escherichia coli; type: cell-based
[3] = tested on: Clostridium perfringens; type: cell-based; details: strain of avian origin
[4] = tested on: Clostridium perfringens; type: cell-based; details: strain of avian origin, 10^6 cfu/ml, 37° C. for 24 hours, anaerobiosis
[5] = tested on: Escherichia coli; type: cell-based; remark: listed apart in the source
[6] = tested on: Salmonella Typhimurium; type: cell-based; remark: listed apart in the source
[7] = tested on: Salmonella Enteritidis; type: cell-based
[8] = tested on: Salmonella Enteritidis; type: cell-based; remark: listed apart in the source
[9] = Solubility in water; type: physicochemical; details: for solubility: water, at 25° C.

Row | SMILES | MIC [1] | MBC [2] | MBC [3] | MIC [4] | MIC [5] | MBC [6] | MIC [7] | MBC [8] | solubility [9] | melting point | Solubility in water ([9]; result in words)
1 | CCCCCCCCCCCC(=O)Oc1cc(C(C)C)ccc1C [IB536, Carvacrol Laurate] | >10% | >10% | >10% | >10% | >10% | >10% | – | – | – | – | –
2 | Cc1cc(S(=O)(=O)O)c(C(C)C)cc1O [IB540, Carvacrol Sulfonic Acid] | 0.75% | 0.75% | 0.75% | 0.375% | 0.75% | 0.75% | 0.312% | 0.312% | – | – | –
3 | Cc1cc(S(=O)(=O)[O-])c(C(C)C)cc1O.[K+] [IB546, Carvacrol Sulfonate Potassium Salt] | 1.25% | 5% | 0.75% | 0.375% | 5% | 1.25% | 1.25% | 1.25% | ~250 mg/mL | > 270 °C (dec.) | –
4 | CCCCCCCCCCCC(=O)Oc1cc(C)ccc1C(C)C [IB570, Thymol Laurate] | >10% | >10% | >10% | >10% | >10% | >10% | – | – | – | – | –
5 | CCCCCCCCCCCC(=O)OC1CC(C)CCC1C(C)C (stereo not shown) [IB579, Menthol Laurate] | >10% | >10% | >10% | >10% | >10% | >10% | – | – | – | – | –
6 | Cc1ccc(C(C)C)c(O)c1 [Thymol, reference compound] | ≤0.093% | ≤0.093% | ≤0.093% | ≤0.093% | ≤0.093% | ≤0.093% | – | – | – | – | –
7 | Cc1ccc(C(C)C)cc1O [Carvacrol, reference compound] | 0.375% | ≤0.093% | ≤0.093% | ≤0.093% | ≤0.093% | 0.375% | – | – | – | – | INSOLUBLE
8 | Cc1ccc(C(C)C)c(OC(=O)CCC(=O)Oc2cc(C)ccc2C(C)C)c1 [Succinate] | ≤0.093% | ≤0.093% | ≤0.093% | ≤0.093% | ≤0.093% | ≤0.093% | – | – | – | – | –
9 | Cc1cc(O)c(C(C)C)cc1S(=O)(=O)[O-].[K+] [IB575, Thymol Sulfonate Potassium Salt] | 5% | 2.5% | 2.5% | 1.25% | 2.5% | 5% | – | – | ~190 mg/mL | – | –
10 | Cc1cc(O)c(C(C)C)cc1S(=O)(=O)O [IB574, Thymol Sulfonic Acid] | 0.375% | 0.75% | 0.375% | 0.375% | 0.75% | 0.375% | 0.625% | 0.625% | – | – | –
